Measured values reported in ChEMBL document CHEMBL1129759, “A comparative study of the solvolysis reactivity, regioselectivity, and stereochemistry of the duocarmycin a and sa alkylation subunits” (Bioorg Med Chem Lett, 1996).

Experiments:
[1] = Half-life […] at pH 3.0; assay type: ADME, cell-free
L1210 [2] = assay: Compound was tested for its anti tumor activity against L1210 cells; assay type: functional, cell-based; conditions: Mus musculus
L1210 [3] = assay: The compound was tested for its anti tumor activity against L1210 cells; assay type: functional, cell-based; conditions: Mus musculus

SMILES	half-life [1]	IC50 (L1210 [2])	IC50 (L1210 [3])
COC(=O)c1cc2c([nH]1)C(=O)C=C1N(C(=O)OC(C)(C)C)C[C@H]3C[C@]123	177 h	6 nM	–
Cc1c[nH]c2c1[C@@]13C[C@@H]1CN(C(=O)OC(C)(C)C)C3=CC2=O	37 h	–	330 nM
COC(=O)[C@]1(C)N=C2C(=O)C=C3N(C(=O)OC(C)(C)C)C[C@H]4C[C@@]34C2=C1O	11 h	2000 nM	–
